From US20260265233A1, “BENZOTHIOPHENE DERIVATIVES AS RXFP1 AGONISTS” (BRISTOL-MYERS SQUIBB COMPANY, priority 2021, published 2026)

Biological target: T1, human RXFP1 (Homo sapiens, UniProt Q9HBX9)
T1 construct: expressed in transfected cells
T1 sequence (Q9HBX9 1-757): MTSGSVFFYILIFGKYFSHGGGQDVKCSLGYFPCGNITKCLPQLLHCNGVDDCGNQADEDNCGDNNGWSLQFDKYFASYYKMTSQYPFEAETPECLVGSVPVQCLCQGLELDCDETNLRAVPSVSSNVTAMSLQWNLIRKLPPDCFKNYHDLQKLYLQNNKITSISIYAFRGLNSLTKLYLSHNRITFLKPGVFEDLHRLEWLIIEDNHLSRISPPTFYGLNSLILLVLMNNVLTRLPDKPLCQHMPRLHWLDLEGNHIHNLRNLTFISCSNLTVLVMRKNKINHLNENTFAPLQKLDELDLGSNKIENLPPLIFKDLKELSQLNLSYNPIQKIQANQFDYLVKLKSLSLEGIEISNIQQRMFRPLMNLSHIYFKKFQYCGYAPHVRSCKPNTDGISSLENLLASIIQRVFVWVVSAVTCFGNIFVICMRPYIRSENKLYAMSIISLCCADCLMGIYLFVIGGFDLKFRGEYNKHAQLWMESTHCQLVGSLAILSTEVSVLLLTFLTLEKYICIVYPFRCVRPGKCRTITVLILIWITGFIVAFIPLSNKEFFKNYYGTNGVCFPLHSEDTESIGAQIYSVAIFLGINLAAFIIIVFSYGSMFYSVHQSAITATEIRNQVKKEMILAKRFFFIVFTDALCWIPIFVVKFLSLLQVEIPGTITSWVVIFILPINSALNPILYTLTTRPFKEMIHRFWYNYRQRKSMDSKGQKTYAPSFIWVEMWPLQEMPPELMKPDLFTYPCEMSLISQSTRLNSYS
Assay: hRXFP1 HEK293 cAMP assay (HTRF)
Assay type: cell-based
Details: HEK293 cells stably expressing human RXFP1; 30 min at rt; intracellular cAMP by HTRF
How it was run: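 Agonism is measured as cAMP by HTRF, quantified from a standard curve via the 665/590 nm ratio and fitted with a four-parameter logistic equation. Compounds (0.010 nM to 50 μM final, 2% DMSO) were applied for 30 min at rt to human RXFP1-expressing HEK293 cells in assay buffer containing 0.5 mM IBMX.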

Row | EC50 [nM] | Compound
1 | 5000 | COc1ccc(C2=NOC3(CNC3)C2)cc1C(=O)Nc1c(C(=O)Nc2ccc(F)c(C(F)(F)F)c2)sc2cc(C(F)(F)F)ccc12 [Example 286, N-(4-fluoro-3-(trifluoromethyl)phenyl)-3-(2-methoxy-5-(5-oxa-2,6-diazaspiro[3.4]oct-6-en-7-yl)benzamido)-6-(trifluoromethyl) benzo[b] thiophene-2-carboxamide]
2 | 491 | COc1ccc(S(=O)(=O)N2CCC[C@@H](NC(=O)CCO)C2)cc1C(=O)Nc1c(C(=O)Nc2ccc(F)c(C(F)(F)F)c2)sc2cc(C(F)(F)F)ccc12 [Example 189, (R)-N-(4-fluoro-3-(trifluoromethyl)phenyl)-3-(5-((3-(3-hydroxy-propanamido)piperidin-1-yl)sulfonyl)-2-methoxy-benzamido)-6-(trifluoromethyl) benzo[b] thiophene-2-carboxamide]
3 | 147 | COc1ccc(C(=O)N2CC(CO)C2)cc1C(=O)Nc1c(C(=O)Nc2ccc(F)c(C(F)(F)F)c2)sc2cc(C(F)(F)F)ccc12 [Example 177, N-(4-fluoro-3-(trifluoromethyl)phenyl)-3-(5-(3-(hydroxymethyl)azetidine-1-carbonyl)-2-methoxy-benzamido)-6-(trifluoromethyl) benzo[b] thiophene-2-carboxamide]
4 | 4650 | COc1ncc(N2CC3(COC3)C2)cc1C(=O)Nc1c(C(=O)Nc2ccc(F)c(C(F)(F)F)c2)sc2cc(C(F)(F)F)ccc12 [Example 233, N-(2-((4-fluoro-3-(trifluoromethyl)phenyl)carbamoyl)-6-(trifluoromethyl)benzo[b]thiophen-3-yl)-2-methoxy-5-(2-oxa-6-azaspiro[3.3]heptan-6-yl)nicotinamide]
5 | 2380 | COc1ccc(N2CCC(NCCO)C2)cc1C(=O)Nc1c(C(=O)Nc2ccc(F)c(C(F)(F)F)c2)sc2cc(C(F)(F)F)ccc12 (single isomer, unassigned) [Example 9, N-(4-fluoro-3-(trifluoromethyl)phenyl)-3-(5-(3-((2-hydroxyethyl)amino)pyrrolidin-1-yl)-2-methoxybenzamido)-6-(trifluoromethyl) benzo[b]thiophene-2-carboxamide]
6 | 2540 | COc1ccc(S(=O)(=O)N2CCC[C@@H](N)C2)cc1C(=O)Nc1c(C(=O)Nc2ccc(F)c(C(F)(F)F)c2)sc2cc(C(F)(F)F)ccc12 [Example 30, (R)-3-(5-((3-aminopiperidin-1-yl)sulfonyl)-2-methoxybenzamido)-N-(4-fluoro-3-(trifluoromethyl)phenyl)-6-(trifluoromethyl) benzo[b]thiophene-2-carboxamide]
7 | 1340 | COc1ncc(N2CC3(C2)CS(=O)(=O)C3)cc1C(=O)Nc1c(C(=O)Nc2ccc(F)c(C(F)(F)F)c2)sc2cc(C(F)(F)F)ccc12 [Example 234, 5-(2,2-dioxido-2-thia-6-azaspiro[3.3]heptan-6-yl)-N-(2-((4-fluoro-3-(trifluoromethyl)phenyl)carbamoyl)-6-(trifluoromethyl)benzo[b]thiophen-3-yl)-2-methoxy-nicotinamide]
8 | 2180 | COc1ccc(C2CCN(CC(N)=O)C2)cc1C(=O)Nc1c(C(=O)Nc2ccc(F)c(C(F)(F)F)c2)sc2cc(C(F)(F)F)ccc12 (centres unmarked) [Example 156, 3-(5-(1-(2-amino-2-oxoethyl)pyrrolidin-3-yl)-2-methoxy-benzamido)-N-(4-fluoro-3-(trifluoromethyl)phenyl)-6-(trifluoromethyl) benzo[b] thiophene-2-carboxamide]
9 | 279 | COc1ccc(C(=O)N2CC3(C2)CS(=O)(=O)C3)cc1C(=O)Nc1c(C(=O)Nc2ccc(F)c(C(F)(F)F)c2)sc2cc(C(F)(F)F)ccc12 [Example 130, 3-(5-(2,2-dioxido-2-thia-6-azaspiro[3.3]heptane-6-carbonyl)-2-methoxy-benzamido)-N-(4-fluoro-3-(trifluoromethyl)phenyl)-6-(trifluoromethyl) benzo[b] thiophene-2-carboxamide]
10 | 1060 | COc1ccc(C2CC2C(=O)O)cc1C(=O)Nc1c(C(=O)Nc2ccc(F)c(C(F)(F)F)c2)sc2cc(C(F)(F)F)ccc12 (single isomer, unassigned) [Example 47, 2-(3-((2-((4-fluoro-3-(trifluoromethyl)phenyl)carbamoyl)-6-(trifluoromethyl)benzo[b]thiophen-3-yl)carbamoyl)-4-methoxyphenyl) cyclopropane-1-carboxylic acid]
11 | 405 | COc1ccc(C(=O)N2CC[C@H](O)C2)cc1C(=O)Nc1c(C(=O)Nc2ccc(F)c(C(F)(F)F)c2)sc2cc(C(F)(F)F)ccc12 [Example 174, (S)-N-(4-fluoro-3-(trifluoromethyl)phenyl)-3-(5-(3-hydroxy-pyrrolidine-1-carbonyl)-2-methoxy-benzamido)-6-(trifluoromethyl) benzo[b] thiophene-2-carboxamide]
12 | 954 | COc1ccc(-c2cc(C(NC(=O)C3CCOCC3)C(F)(F)F)ccc2F)cc1C(=O)Nc1c(C(=O)Nc2ccc(F)c(C(F)(F)F)c2)sc2cc(C(F)(F)F)ccc12 (single isomer, unassigned) [Example 20, N-(2,2,2-trifluoro-1-(6-fluoro-3′-((2-((4-fluoro-3-(trifluoromethyl)phenyl)carbamoyl)-6-(trifluoromethyl)benzo[b]thiophen-3-yl)carbamoyl)-4′-methoxy-[1,1′-biphenyl]-3-yl)ethyl)tetrahydro-2H-pyran-4-carboxamide]
13 | 70 | COc1ccc(C(=O)NCC2(S(C)(=O)=O)CC2)cc1C(=O)Nc1c(C(=O)Nc2ccc(F)c(C(F)(F)F)c2)sc2cc(Cl)ncc12 [Example 196, N3-(6-chloro-2-((4-fluoro-3-(trifluoromethyl)phenyl)carbamoyl)thieno[3,2-c]pyridin-3-yl)-4-methoxy-N1-((1-(methylsulfonyl)cyclopropyl)methyl) isophthalamide]
14 | 4260 | COc1ccc(-c2cc(C(=O)O)ccc2F)cc1C(=O)Nc1c(C(=O)Nc2ccc(F)c(C(F)(F)F)c2)sc2nc(C)ccc12 [Example 288, 6-fluoro-3′-[(2-{[4-fluoro-3-(trifluoromethyl)phenyl]carbamoyl}-6-methylthieno[2,3-b]pyridin-3-yl)carbamoyl]-4′-methoxy-[1,1′-biphenyl]-3-carboxylic acid]
15 | 375 | COc1ccc(N2CCCC(C(=O)O)C2)cc1C(=O)Nc1c(C(=O)Nc2ccc(F)c(C(F)(F)F)c2)sc2cc(C(F)(F)F)ccc12 (single isomer, unassigned) [Example 4, 1-(3-((2-((4-fluoro-3-(trifluoromethyl)phenyl)carbamoyl)-6-(trifluoromethyl)benzo[b]thiophen-3-yl)carbamoyl)-4-methoxyphenyl) piperidine-3-carboxylic acid]
16 | 823 | COc1cc(F)c(C(=O)N2CC[C@@H](O)C2)cc1C(=O)Nc1c(C(=O)Nc2ccc(F)c(C(F)(F)F)c2)sc2cc(C(F)(F)F)ccc12 [Example 183, (R)-N-(4-fluoro-3-(trifluoromethyl)phenyl)-3-(4-fluoro-5-(3-hydroxy-pyrrolidine-1-carbonyl)-2-methoxy-benzamido)-6-(trifluoromethyl) benzo[b] thiophene-2-carboxamide]
17 | 46.8 | COc1ccc(C2CCCN(CC(N)=O)CC2)cc1C(=O)Nc1c(C(=O)Nc2ccc(F)c(C(F)(F)F)c2)sc2cc(C(F)(F)F)ccc12 (single isomer, unassigned) [Example 70, 3-(5-(1-(2-amino-2-oxoethyl)azepan-4-yl)-2-methoxy-benzamido)-N-(4-fluoro-3-(trifluoromethyl)phenyl)-6-(trifluoromethyl) benzo[b] thiophene-2-carboxamide]
18 | 255 | COc1ccc(-c2ccc(N3CCNCC3)nc2)cc1C(=O)Nc1c(C(=O)Nc2ccc(F)c(C(F)(F)F)c2)sc2cc(C(F)(F)F)ccc12 [Example 118, N-(4-fluoro-3-(trifluoromethyl)phenyl)-3-(2-methoxy-5-(6-(piperazin-1-yl)pyridin-3-yl)benzamido)-6-(trifluoromethyl) benzo[b] thiophene-2-carboxamide]
19 | 1120 | COc1ccc(C2=NOC3(C2)CN(C(=O)C(C)(C)CO)C3)cc1C(=O)Nc1c(C(=O)Nc2ccc(F)c(C(F)(F)F)c2)sc2cc(C(F)(F)F)ccc12 [Example 283, N-(4-fluoro-3-(trifluoromethyl)phenyl)-3-(5-(2-(3-hydroxy-2,2-dimethyl-propanoyl)-5-oxa-2,6-diazaspiro[3.4]oct-6-en-7-yl)-2-methoxy-benzamido)-6-(trifluoromethyl) benzo[b] thiophene-2-carboxamide]
20 | 293 | COc1ccc(N2CCCC(CC(=O)O)C2)cc1C(=O)Nc1c(C(=O)Nc2ccc(F)c(C(F)(F)F)c2)sc2cc(C(F)(F)F)ccc12 (single isomer, unassigned) [Example 64, 2-(1-(3-((2-((4-fluoro-3-(trifluoromethyl)phenyl)carbamoyl)-6-(trifluoromethyl)benzo[b]thiophen-3-yl)carbamoyl)-4-methoxyphenyl)piperidin-3-yl)acetic acid]
